Test results from PubChem BioAssay (NCI).
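Dose response: 5 concentrations. Exposure: 48 h. Format: 96-well plates. Endpoint: linear interpolation; highest concentration if not reached. GI50: concentration for 50% inhibition of growth. TGI: concentration producing complete growth inhibition.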

Assays:
Assay in all cases: NCI anticancer screen, dose series, 48 h
HCC-2998 colon = test system: HCC-2998 colon
HL-60(TB) leukemia = test system: HL-60(TB) leukemia
IGROV1 ovarian = test system: IGROV1 ovarian
LXFL 529 NSCLC = test system: LXFL 529 NSCLC
M14 melanoma = test system: M14 melanoma
MOLT-4 leukemia = test system: MOLT-4 leukemia
OVCAR-5 ovarian = test system: OVCAR-5 ovarian
OVCAR-8 ovarian = test system: OVCAR-8 ovarian
HOP-18 NSCLC = test system: HOP-18 NSCLC
KM20L2 colon = test system: KM20L2 colon
T-47D breast = test system: T-47D breast

SMILES | TGI (HCC-2998 colon) [µM] | TGI (HL-60(TB) leukemia) [µM] | TGI (IGROV1 ovarian) [µM] | TGI (LXFL 529 NSCLC) [µM] | TGI (M14 melanoma) [µM] | TGI (MOLT-4 leukemia) [µM] | TGI (OVCAR-5 ovarian) [µM] | TGI (OVCAR-8 ovarian) [µM] | TGI (HOP-18 NSCLC) [µM] | TGI (KM20L2 colon) [µM] | TGI (T-47D breast) [µM] | GI50 (KM20L2 colon) [µM]
CC1=C(O)C(=O)C2C(=O)C1C1Cc3ccccc3C21 (stereo not given) | > 100 | > 100 | > 100 | > 100 | > 100 | > 100 | > 100 | > 100 |  |  |  | 
COc1ccc(-c2cc(=O)c3cc(OC)ccc3[nH]2)cc1 | > 100 | > 100 | > 100 | > 100 | > 100 | > 100 | > 100 | > 100 | > 100 | > 100 |  | 
CSc1nc(NC2OC(COC(C)=O)C(OC(C)=O)C(OC(C)=O)C2OC(C)=O)c2c(n1)OCC2=O (stereo not given) |  | > 100 | > 100 | > 100 | > 100 | > 100 | > 100 | > 100 | > 100 | > 100 |  | 
CC(C)N=C(N)NC#N | > 100 | > 100 | > 100 | > 100 | > 100 | > 100 | > 100 | > 100 | > 100 | > 100 |  | 
Cc1cc(/C=C/c2cc[n+](C)c3ccccc23)c(O)c2ncccc12 | 14.5 | > 26.9 | 8.39 | 16 | 4.51 | 7.47 | 16 | 16.1 | 11.9 | 20 |  | 
COC1C(O)C(n2ncc3c(SC)nc(SC)nc32)OC1C(O)CO (stereo not given) | > 100 | > 100 | > 100 |  |  | > 100 | > 100 | > 100 | > 100 | > 100 |  | 
CCOC(=O)C1c2[nH]c3ccccc3c2CCN1C(=O)c1ccc(OC)o1 (stereo not given) | > 10 | > 10 | > 10 |  | > 10 | > 10 | > 10 | > 10 |  |  | > 10 | 
COc1ccc(C2SCC(=O)N2NC(=O)c2ccc(NC(C)=O)cc2)c(OC)c1 (stereo not given) | > 100 | > 100 | > 100 |  | > 100 | > 100 | > 100 | > 100 |  |  | > 100 | 
Cc1c(N2CCN(C)CC2)nc2ccc(Cl)cc2c1-c1ccccc1 | > 10 | 34.5 |  | 31.7 | 34.9 | > 10 |  | 31.8 |  | 31.2 |  | 
O=c1ccn(COC(COCc2ccccc2)COCc2ccccc2)c(=O)[nH]1 | > 100 | > 100 | > 100 |  | > 100 | > 100 | > 100 | > 100 |  |  | > 100 | 
CC(C)NC(=O)OCc1c(CO)c2c(n1C)-c1ccccc1CC2 | 57.4 | > 58.3 | > 77.6 |  |  | 48.9 | > 100 | 57.6 | 70.1 | > 84.5 |  | 
CC(=O)OCC1OC(n2c(-c3ccccc3)c(C(C)=O)c(-c3cccc4ccccc34)c(C#N)c2=S)C(OC(C)=O)C(OC(C)=O)C1OC(C)=O (stereo not given) | > 100 | > 100 | > 100 |  | > 100 | > 100 | > 100 | > 100 |  |  | > 100 | 
CN(C)C(c1ccccc1)C1COC2Cc3ccccc3C1O2 (stereo not given) | > 100 | > 100 | > 100 |  | > 100 | > 100 | > 100 | > 100 |  |  | > 100 | 
C/C(CC(=O)Nc1ccc(C)c(C)c1)=N\NC(N)=O | > 100 | > 100 | > 100 | > 100 | > 100 | > 100 | > 100 | > 100 |  | > 100 |  | 
CS(=O)(=O)c1ccc(N=C/C=C/Nc2ccc(S(C)(=O)=O)cc2)cc1 | > 100 | > 100 | > 100 |  | > 100 | > 100 | > 100 | > 100 |  |  | > 100 | 
COC(=O)C(Cc1c[nH]c2ccccc12)NC(=O)c1ccc(-c2ccc(Cl)cc2Cl)o1 (stereo not given) | 48.5 | > 100 | > 100 |  | > 100 | > 100 | > 100 | > 100 |  |  | > 100 | 
COC(=O)C1(C#N)C(C)(C)N=C(c2ccccc2)C12CCCCC2 (stereo not given) | > 100 | > 100 | > 100 |  | > 100 | > 100 | > 100 | > 100 |  |  | > 100 | 
CC(C)=CCC/C(C)=C/CC/C(C)=C/CC/C(C)=C/CC/C(C)=C/CC/C(C)=C/CC/C(C)=C/CC/C(C)=C/CC/C(C)=C/CO | > 100 | > 100 | > 100 |  | > 100 | > 100 | > 100 | > 100 |  |  | > 100 | 
CN(C)CCNC(=O)c1cccc(N(C)C(=O)c2ccccc2)c1[N+](=O)[O-] | > 100 | > 100 | > 100 |  | > 100 | > 100 | > 100 | > 100 |  |  | > 100 | 
CCCCCCCCCCCCCCCCCCNC(=S)/N=C\C1=C(O)c2ccccc2C1=O | 6.4 | > 100 | 5.62 |  | 22 | 16.5 | 26.9 | 32 |  |  | 37.2 | 
CC1(C)Cc2nc3c(cc2C(=O)C1C=N/C(C#N)=C(\N)C#N)C(=O)C(C=N/C(C#N)=C(\N)C#N)C(C)(C)C3 (stereo not given) | 10.3 | 10.1 | 3.56 |  | 3.05 | > 100 | 5.48 | 8.71 |  |  | 4.3 | 
COc1ccccc1-c1cc(=O)c2cc3c(cc2[nH]1)OCO3 | > 100 | > 100 | > 100 | > 100 |  | > 100 |  | > 100 |  | 37.5 |  | 18.7
Cn1c(=O)c2c(nc3n2CCCC(=O)N3CC(O)CCl)n(C)c1=O (stereo not given) | > 100 | > 100 | > 100 |  | > 100 | > 100 | > 100 | > 100 |  |  | > 100 | 
CC1SCc2nc3ccccc3n21 (stereo not given) | > 100 | > 100 | > 100 |  | > 100 | > 100 | > 100 | > 100 |  |  | > 100 | 
CC[C@@]1(C)CCC2c3ccc(O)cc3CC[C@H]2C1C (stereo not given in full) | 27.1 | 29 | 38.1 |  | 30.3 | 32.5 | 33.3 | 33.8 |  |  | 39.3 | 
COC1CN(C)C(=Nc2cccc3ccccc23)S1 (stereo not given) | > 10 | > 10 | > 10 |  | > 10 | > 10 | > 10 | > 10 |  |  | > 10 | 
O=c1c(Br)cc2nc3ccccc3sc-2c1Br | > 100 | 38.9 | > 100 | > 100 | > 100 | > 65.8 | > 100 | 41.4 |  | > 100 |  | 
O=C1C2=C(CC3=C(C2)CS(=O)(=O)C3)C(=O)C2=C1CC1=C(C2)CS(=O)(=O)C1 | > 51.6 | 22 | 36.5 |  | > 54.9 | > 65.6 | > 78.3 | > 59.7 |  |  | 8.66 | 
COc1ccccc1C1ON=C(c2ccc([N+](=O)[O-])cc2)N1C12CC3CC(CC(C3)C1)C2 (stereo not given) | > 100 | 42.5 | > 100 |  | > 100 | > 100 | > 100 | > 100 |  |  | > 100 | 
